Measurements: patent US20160279166A1, “TREATING AGENT AND TREATING METHOD FOR THE EXAMINATION OR OPERATION OF THE LARGE INTESTINE” (KYOWA CHEMICAL INDUSTRY CO., LTD., priority 2013, published 2016)

Experiments:
large intestine = test: CT examination of the large intestine: evaluation of remaining feces, remaining water and overall evaluation after pretreatment; assay type: in vivo, human; settings: conclusion from CT overall evaluation
Protocol: The large intestine is divided into 6 parts in order to evaluate remaining feces and remaining water in each part in five stages from an image of the large intestine at a supine position (SU) and a lateral recumbent position (PR) obtained from CT examination. Further, overall evaluation was carried out from the obtained evaluation results.
The large intestine is divided into the following six parts.
C: appendix A: ascending colon T: transverse colon D: descending colon S: sigmoid colon R: rectum
The remaining feces were evaluated in five stages according to the existence of movement and a shape change.
0: difficult to evaluate 1: sticks to a mucous membrane 2: no movement and no shape change 3: moved and changed in shape 4: almost no remaining feces
The remaining water was evaluated in the following five stages according to its proportion to the circumference.
0: 4/4 of the circumference is under water (complete submersion). 1: 3/4 of the circumference is under water 2: 2/4 of the circumference is under water 3: 1/4 of the circumference is under water (submersion of semilunar pleat) 4: almost no submersion
The overall evaluation was made in the following five stages.
0: not useful 1: it cannot be said whether it is useful or not 2: rather useful 3: useful 4: very useful
3 g of MgO for each examination was divided in two portions to be administered as the pretreatment of the examination. […]

rats [1] = test: Defecation state (soft stool) of rats 9 hours after administration; assay type: in vivo, rat; settings: oral, after 9 hours, magnesium oxide 700 mg/kg, fiber powders 4500 mg/kg, fiber liquid 4500 mg/kg as administered
Protocol: (§1) Magnesium oxide particles and water-soluble dietary fibers were administered to rats for animal testing to check the defecation states after 9 hours. Laparotomy was made on the rats after 9 hours to measure the amount of remaining feces, the amount of dry feces and the content of water in the intestinal tract.
(§2) A preparation containing 1.4 g of magnesium oxide particles and 9 g of water-soluble dietary fiber powders was used to administer 700 mg/kg of the magnesium oxide particles and 4,500 mg/kg of the water-soluble dietary fiber powders to rats. The magnesium oxide in use was magnesium oxide particles having an average secondary particle diameter specified in the present invention. The water-soluble dietary fibers in use were reduced indigestible dextrin specified in the present invention.
The total suspension liquid doses to test groups were fixed. […] The defecation state was checked after 9 hours, and the amount of remaining feces, the amount of dry feces and the content of water in the large intestine of each rat were measured to evaluate the effects on the properties of feces of the magnesium oxide particles and the water-soluble dietary fibers.

rats [2] = test: Laparotomy of rats after 9 hours: remaining feces, dry feces and water content in the large intestinal tract; assay type: in vivo, rat
Protocol: as §1, §2
The total suspension liquid doses to test groups were fixed. When the magnesium oxide particles and a mixture of the magnesium oxide particles and the water-soluble dietary fiber powders were administered, 5 ml/kg of them was administered, and when they were not administered, 0.05% CMC-NA was administered. When the water-soluble dietary fiber liquid was administered, 10 ml/kg of it was administered and when the water-soluble dietary fiber liquid was not administered, 10 ml/kg of water was administered. The defecation state was checked after 9 hours, and the amount of remaining feces, the amount of dry feces and the content of water in the large intestine of each rat were measured to evaluate the effects on the properties of feces of the magnesium oxide particles and the water-soluble dietary fibers.

rats [3] = test: Defecation state (diarrhea) of rats after 9 hours with varied amount of ingested water; assay type: in vivo, rat; settings: oral, magnesium oxide 700 mg/kg
Protocol: Magnesium oxide particles were administered to rats for animal testing to check the defecation states after 9 hours. At this point, the amount of water to be taken was increased and decreased to evaluate the effect on laxative action of the amount of water to be taken.
A preparation containing magnesium oxide as an effective component and crystalline cellulose, croscarmellose and calcium stearate as additives was used. […] The magnesium oxide in use is magnesium oxide particles having an average secondary particle diameter specified in the present invention.
The defecation state of each test group was checked after 9 hours so as to calculate the water-like feces excretion rate and evaluate the effect on the properties of feces of the amount of ingested water when the magnesium oxide particles were administered.

[4] = large intestinal tract after 9 hours, magnesium oxide 700 mg/kg, fiber powders 4500 mg/kg, fiber liquid 4500 mg/kg as administered

Structure (SMILES): [O]=[Mg] [Magnesium oxide particles, magnesium oxide]
- effectiveness as a treating agent for the examination or operation of the large intestine (in words) (large intestine): extremely effective
- Proportion having soft stool (number of rats having soft stool/number of test rats) (rats [1]): 3/5
- amount of dry feces (in words) (rats [2]; after 9 hours): reduced
- content of water (in words) (rats [2]; after 9 hours): increased
- Amount of dry feces (rats [2]; [4]): 12%
- Amount of remaining feces (rats [2]; [4]): 3.69 g
- Content of water (rats [2]; [4]): 88%
- Proportion causing diarrhea (number of rats suffering from diarrhea/number of test rats) (rats [3]; water 1 mL/kg): 3/5
- Proportion causing diarrhea (number of rats suffering from diarrhea/number of test rats) (rats [3]; water 10 mL/kg): 4/5
- Proportion causing diarrhea (number of rats suffering from diarrhea/number of test rats) (rats [3]; water 35 mL/kg): 5/5
